Like-named read-outs stand apart in the source and are kept apart here.
Tests used:
[1] = system: murine leukemia cells (L1210); experiment: proliferation activity assay, L1210 cells; type: cell-based; conditions: read-out: IC50 (50% inhibitory concentration) L1210
[2] = system: oesophageal cancer cell lines OE 19 and OE 33
[3] = system: non-cancerous human T-lymphocyte cells (CEM); experiment: proliferation activity assay, CEM cells; type: cell-based; conditions: read-out: IC50 (50% inhibitory concentration) CEM
[4] = system: human cervix carcinoma cells (Hela); experiment: proliferation activity assay, HeLa cells; type: cell-based; conditions: read-out: IC50 (50% inhibitory concentration) HeLa
Vaccinia virus = experiment: microbe, parasite or virus in culture; type: cell-based; conditions: read-out: EC50 (required to reduce virus-induced cytopathogenicity by 50%) Vaccinia virus
[5] = system: Vesicular stomatitis virus; experiment: microbe, parasite or virus in culture; type: cell-based; conditions: read-out: EC50 (required to reduce virus-induced cytopathogenicity by 50%) Vesicular stomatitis virus
[6] = system: Herpes simplex virus-1 TK^− KOS ACV^r; experiment: microbe, parasite or virus in culture; type: cell-based; conditions: read-out: EC50 (required to reduce virus-induced cytopathogenicity by 50%) Herpes simplex virus-1 TK^− KOS ACV^r
Hela cells = experiment: minimum cytotoxic concentration in antiviral assay host cells (Table 2)
[7] = system: Herpes simplex virus-1 (KOS); experiment: microbe, parasite or virus in culture; conditions: Human alphaherpesvirus 1, HeLa, read-out: EC50 (required to reduce virus-induced cytopathogenicity by 50%) Herpes simplex virus-1 (KOS)
[8] = system: Herpes simplex virus-2 (G); experiment: microbe, parasite or virus in culture; conditions: Human alphaherpesvirus 2, HeLa, read-out: EC50 (required to reduce virus-induced cytopathogenicity by 50%) Herpes simplex virus-2 (G)
[9] = system: Herpes simplex virus-1 (KOS); conditions: read-out: EC50 (required to reduce virus-induced cytopathogenicity by 50%) Herpes simplex virus-1 (KOS); Hela cells
[10] = system: Herpes simplex virus-2 (G); conditions: read-out: EC50 (required to reduce virus-induced cytopathogenicity by 50%) Herpes simplex virus-2 (G); Hela cells
[11] = system: cells lacking (TK negative) or possessing (TK positive) the phosphorylation enzyme; conditions: cell death curves, FIG. 3
[12] = even at higher concentrations of 25 μM
[13] = Vesicular stomatitis virus, HeLa

| Compound | IC50 [1] | inhibition of cell growth [2, 12] | IC50 [3] | IC50 [4] | EC50 (Vaccinia virus; Orthopoxvirus vaccinia, HeLa) | EC50 [5, 13] | EC50 ([6]; Human alphaherpesvirus 1, HeLa) | other results |
| --- | --- | --- | --- | --- | --- | --- | --- | --- |
| 1-(Thyminyl-)ethyl-ferrocene [Compound 4] | 417 µM | ineffective at inhibiting cell growth | 592 µM | 509 µM | – | – | – | – |
| 1-[2-(Adenin-9-yl)ethyl]-ferrocene [Compound 5] | – | ineffective at inhibiting cell growth | – | – | – | – | – | – |
| 1-[α-Methyl-(3-(hydroxy)propyl)]ferrocene [Compound 3] | 12.3 µM | ineffective at inhibiting cell growth | 38.7 µM | 45.2 µM | – | – | – | – |
| Nc1nc2c(ncn2COCCO)c(=O)[nH]1 [Acyclovir] | – | – | – | – | > 250 µM | > 250 µM | 50 µM | – |
| O=c1[nH]c(=O)n([C@H]2C[C@H](O)[C@@H](CO)O2)cc1/C=C/Br [Brivudin] | – | – | – | – | 10 µM | > 250 µM | 50 µM | Minimum cytotoxic concentration (required to cause a microscopically detectable alteration of normal cell morphology) (Hela cells): >250 μM; EC50 [7]: 0.02 µM; EC50 [8]: 183 µM |
| Nc1ccn(C[C@@H](CO)OCP(=O)(O)O)c(=O)n1 [Cidofovir] | – | – | – | – | 17 µM | > 250 µM | 0.9 µM | Minimum cytotoxic concentration (required to cause a microscopically detectable alteration of normal cell morphology) (Hela cells): >250 μM; EC50 [7]: 2 µM; EC50 [8]: 2 µM |
| N.N.[Cl][Pt][Cl] [Cisplatin] | 1 µM | – | 0.9 µM | 1.2 µM | – | – | – | – |
| Nc1nc(O)c2ncn(COC(CO)CO)c2n1 [Ganciclovir] | – | – | – | – | > 100 µM | > 100 µM | 10 µM | – |
| (S,Rp)-1-[α-Methyl-(3-(hydroxy)propyl)]-2-[2-(-adenin-9-yl)ethyl]-ferrocene [Compound 2] | – | – | – | – | – | – | – | inhibition of cell growth ([2]; 6.25 μM, 4-day experiment): inhibited cell growth |
| (S,Rp)-1-[α-Methyl-(3-(hydroxy)propyl)]-2-[(thyminyl)ethyl]-ferrocene [Compound 1] | 0.78 µM | – | 0.9 µM | 2.68 µM | – | – | – | inhibition of cell growth ([2]; 6.25 μM, 4-day experiment): inhibited cell growth; EC50 (Vaccinia virus): 21.6 µM; EC50 [5]: 48 µM; EC50 [9]: 2.4 µM; EC50 [10]: 2.4 µM; cell survival, TK negative versus TK positive cells [11]: the cells lacking the phosphorylation enzyme (TK negative) survive more than the cells that possess the phosphorylation enzyme (TK positive); EC50 ([6]; Hela cells): 9.6 µM |
